Here are results for six compounds from US6849657B2, “2-pyrrolidone derivatives as prostanoid agonists” (Syntex (U.S.A.) LLC, priority 2001, dated 2005).

Read-outs that look alike come from different tables or passages of the source.

Assay [1] concerns the target rEP2 receptor (UniProt Q62928). The experiment in a line: Competitive binding assay of [3H]PGE2 to rEP2 receptor. The following applies: [3H]-PGE2 competitive binding, membranes of transfected COS-7 cells, pH 6.0, 45 minutes at 23° C.; read-out: EP2, Ki. The protocol: (§1) Competitive Binding Assay of [^3H]PGE2 to rEP1, rEP2, rEP3 and rEP4 Receptor
(§2) Stably transfected cells expressing EP3 were grown in F-12 media (GIBCO) supplemented with 10% heat inactivated certified Fetal Bovine Serum (GIBCO) and pelleted. Prostanoid receptor EP2 or EP4 cDNA corresponding to the full-length coding sequence was subcloned into the appropriate sites of the mammalian expresson vector pcDNA 3.1(+)/Zeo (Invitrogen). Transfection-scale quantities of the vector were prepared using the Qiagen Endo-Free Plasmid Maxi Kit and transfected into COS-7 cells using FuGene 6 (Roche Molecular) according to the manufacturer's instructions (Roche). COS-7 cells were grown in DMEM (GIBCO) supplemented with 10% heat inactivated certified Fetal Bovine Serum (GIBCO) and Gentamicin (GIBCO), and were harvested 72 hours after transfection. Cells were pelleted by centrifugation, washed with PBS (GIBCO), repelleted, then flash-frozen in dry-ice/Ethanol or used directly for membrane preparation.
(§3) All procedures for membrane preparation were performed at 4° C. Prostanoid receptor-transfected COS-7 cells or stably transfected CHO cells were homogenized in assay buffers (see recipe, below) using a Polytron homogenizer (Brinkman) and centrifuged at 48,000×g for 30 minutes. Pellets were resuspended in assay buffer and resuspended by sonication using a Branson sonifier. Protein concentration was determined using the BioRad DC Protein Assay following the manufacturer's directions and stored at −80° C.
Methods for competitive affinity binding assays of EP2, EP3 and EP4 were derived from those described in M. Abramovitz et al, “The utilization of recombinant prostanoid receptors to determine the affinities and selectivities of prostaglandins and related analogs” Biochimica et Biophysica Acta 1483 (2000) 285-293. Binding assays were performed in a final incubation volume of 0.2 mL in the following assay buffers: 20 mM HEPES, 1 mM EDTA, and 10 mM MgCl2 (pH 7.4) (EP3) or 10 mM MES, 10 mM MnCl2, and 1 mM EDTA_(pH to 6.0 with NaOH) (EP2 and EP4) and radioligand {2.25 nM (EP3) or 2.5 nM (EP2) [^3H]-PGE2 (200 Ci/mmol, NEN)}. Reactions were initiated by addition of membrane protein (approximately 50 ug/reaction for EP3, 100 ug for EP2 and EP4). Dimethylsulfoxide (Sigma) concentration was kept constant at 1% (v/v) in all incubations, and compounds were assayed at final concentrations of 100 uM-0.3 nM. Non-specific binding was determined in the presence of 10 µM of non-radioactive PGE2 (Cayman Chemical). Incubations were conducted for 60 minutes at 30° C. (EP3) or 45 minutes at 23° C. (EP2 and EP4). Incubations were terminated by rapid filtration through a 96-well Unifilter GF/B (Packard) (prewetted in 10 mM MES, 0.01% BSA, pH 6.0 for EP2) at 4° C. using a Filtermate 196 96-well semi-automated cell harvester (Packard). The filters were washed with 3-4 mL of wash buffer (20 mM HEPES pH 7.4 for EP3, 10 mM MES, 0.01% BSA, pH 6.0 for EP2 and EP4), dried for at least 1 hour at room temperature, and the residual radioactivity bound to the individual filters determined by scintillation counting with addition of 37.5 uL of Microscint 20 (Packard) using a Packard TopCount Microplate Scintillation Counter. Statistics of binding were determined using Prism v 3.0 software (GraphPad).

Assay [2] concerns the target T1, rEP3 receptor (UniProt P34980).
T1 sequence (P34980 1-365): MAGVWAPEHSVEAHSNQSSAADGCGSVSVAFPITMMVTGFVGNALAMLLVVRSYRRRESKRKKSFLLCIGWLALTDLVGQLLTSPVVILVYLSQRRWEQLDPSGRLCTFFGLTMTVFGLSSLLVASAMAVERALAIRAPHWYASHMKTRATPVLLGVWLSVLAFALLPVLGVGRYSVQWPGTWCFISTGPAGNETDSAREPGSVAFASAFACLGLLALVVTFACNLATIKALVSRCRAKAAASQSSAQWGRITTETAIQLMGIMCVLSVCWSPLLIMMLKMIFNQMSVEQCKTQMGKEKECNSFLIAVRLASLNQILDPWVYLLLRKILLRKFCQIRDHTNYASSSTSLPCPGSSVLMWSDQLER
Put plainly: Competitive binding assay of [3H]PGE2 to rEP3 receptor. The following applies: [3H]-PGE2 competitive binding, membranes of stably transfected cells, pH 7.4, 60 minutes at 30° C.; read-out: EP3, Ki. The protocol: as §1, §2, §3
Methods for competitive affinity binding assays of EP2, EP3 and EP4 were derived from those described in M. Abramovitz et al, “The utilization of recombinant prostanoid receptors to determine the affinities and selectivities of prostaglandins and related analogs” Biochimica et Biophysica Acta 1483 (2000) 285-293. Binding assays were performed in a final incubation volume of 0.2 mL in the following assay buffers: 20 mM HEPES, 1 mM EDTA, and 10 mM MgCl2 (pH 7.4) (EP3) or 10 mM MES, 10 mM MnCl2, and 1 mM EDTA_(pH to 6.0 with NaOH) (EP2 and EP4) and radioligand {2.25 nM (EP3) or 2.5 nM (EP2) [^3H]-PGE2 (200 Ci/mmol, NEN)}. […] Non-specific binding was determined in the presence of 10 µM of non-radioactive PGE2 (Cayman Chemical). […] The filters were washed with 3-4 mL of wash buffer (20 mM HEPES pH 7.4 for EP3, 10 mM MES, 0.01% BSA, pH 6.0 for EP2 and EP4), dried for at least 1 hour at room temperature, and the residual radioactivity bound to the individual filters determined by scintillation counting with addition of 37.5 uL of Microscint 20 (Packard) using a Packard TopCount Microplate Scintillation Counter. Statistics of binding were determined using Prism v 3.0 software (GraphPad).

The target of assay [3] is rEP4 receptor (UniProt P43114). The experiment in a line: Competitive binding assay of [3H]PGE2 to rEP4 receptor. The protocol:
as §1, §2, §3
Reactions were initiated by addition of membrane protein (approximately 50 ug/reaction for EP3, 100 ug for EP2 and EP4). Dimethylsulfoxide (Sigma) concentration was kept constant at 1% (v/v) in all incubations, and compounds were assayed at final concentrations of 100 uM-0.3 nM. Non-specific binding was determined in the presence of 10 µM of non-radioactive PGE2 (Cayman Chemical). Incubations were conducted for 60 minutes at 30° C. (EP3) or 45 minutes at 23° C. (EP2 and EP4). […] The filters were washed with 3-4 mL of wash buffer (20 mM HEPES pH 7.4 for EP3, 10 mM MES, 0.01% BSA, pH 6.0 for EP2 and EP4), dried for at least 1 hour at room temperature, and the residual radioactivity bound to the individual filters determined by scintillation counting with addition of 37.5 uL of Microscint 20 (Packard) using a Packard TopCount Microplate Scintillation Counter. Statistics of binding were determined using Prism v 3.0 software (GraphPad).

Setting [4] is: [3H]-PGE2 competitive binding, membranes of transfected COS-7 cells, pH 6.0, 45 minutes at 23° C.; read-out: EP4, Ki.

A word on the Ki: it is the equilibrium dissociation constant of an inhibitor or competing ligand from its target.

Consider `CCCCC[C@H](O)/C=C/[C@H]1CCC(=O)N1CCSCCCC(=O)O` [Compound 1, 4-[(2-{(2R)-2-[(1E,3S)-3-hydroxyoct-1-enyl]-5-oxopyrrolidin-1-yl}ethyl)thio]butanoic acid], for which the Ki in assay [1] amounted to 1600 nM; in assay [2] it was 2600 nM; in assay [3] (setting [4]), 5 nM.
For `CCCCCC(O)/C=C/[C@H]1CCC(=O)N1C/C=C\COCC(=O)O` (stereo partly drawn) [Compound 8, {(Z)-4-[(R)-2-((E)-3-hydroxy-oct-1-enyl)-5-oxo-pyrrolidin-1-yl]-but-2-enyloxy}-acetic acid], the Ki in assay [1] was over 10000 nM.
`O=C(O)COCCCCN1C(=O)CC[C@@H]1/C=C/[C@@H](O)Cc1cccc(C(F)(F)F)c1` [Compound 10, (4-{(R)-2-[(S)-(E)-3-hydroxy-4-(3-trifluoromethyl-phenyl)-but-1-enyl]-5-oxo-pyrrolidin-1-yl}-butoxy)-acetic acid]: the Ki in assay [1] was 66000 nM; in assay [2] it was over 10000 nM; in assay [3] (read-out: EP4, Ki; [3H]-PGE2 competitive binding, membranes of transfected COS-7 cells, pH 6.0, 45 minutes at 23° C.), 7 nM.
As to `CCCCCC(C)(O)/C=C/[C@H]1CCC(=O)N1CCSCCCC(=O)O` (stereo partly drawn) [Compound 14, 4-{2-[(R)-2-((E)-3-hydroxy-3-methyl-oct-1-enyl)-5-oxo-pyrrolidin-1-yl]-ethylsulfanyl}-butyric acid], the inhibition constant (Ki) in assay [1] is 18000 nM; in assay [3] (setting [4]) it was 90 nM.
In the case of `O=C(O)CCCSCCN1C(=O)CC[C@@H]1CC[C@@H](O)c1cccc(Oc2cccc(F)c2)c1` [Compound 15, 4-[2-((S)-2-{(R)-3-[3-(3-Fluoro-phenoxy)-phenyl]-3-hydroxy-propyl}-5-oxo-pyrrolidin-1-yl)-ethylsulfanyl]-butyric Acid], the Ki is 7800 nM in assay [1], 49000 nM in assay [2] and 8 nM in assay [3] (setting [4]).
Take `CCCCC[C@H](O)/C=C/C1CCC(=O)N1OCCCCCC(=O)O` (stereo partly drawn) [Compound 28, 6-[2-((S)-(E)-3-Hydroxy-oct-1-enyl)-5-oxo-pyrrolidin-1-yloxy]-hexanoic acid]: the Ki in assay [1] was over 10000 nM; in assay [2] it was over 10000 nM; in assay [3] (setting [4]), 60 nM.
